Reference: PubChem BioAssay (NCI)
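Five concentrations, 48 hours, 96-well plates. GI50 marks 50% less growth. At the TGI there is no net growth.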

How the values were obtained:
Assay in all cases: inhibition of tumour cell growth, NCI panel, 48 h
ACHN renal = tested on: ACHN renal
COLO 205 colon = tested on: COLO 205 colon
DU-145 prostate = tested on: DU-145 prostate
HOP-62 NSCLC = tested on: HOP-62 NSCLC
HOP-92 NSCLC = tested on: HOP-92 NSCLC
K-562 leukemia = tested on: K-562 leukemia
RXF 393 renal = tested on: RXF 393 renal
SF-539 CNS = tested on: SF-539 CNS
SN12C renal = tested on: SN12C renal
UACC-257 melanoma = tested on: UACC-257 melanoma

SMILES	GI50 (ACHN renal) [µM]	TGI (ACHN renal) [µM]	GI50 (COLO 205 colon) [µM]	TGI (COLO 205 colon) [µM]	GI50 (DU-145 prostate) [µM]	TGI (DU-145 prostate) [µM]	GI50 (HOP-62 NSCLC) [µM]	TGI (HOP-62 NSCLC) [µM]	GI50 (HOP-92 NSCLC) [µM]	TGI (HOP-92 NSCLC) [µM]	GI50 (K-562 leukemia) [µM]	TGI (K-562 leukemia) [µM]	GI50 (RXF 393 renal) [µM]	TGI (RXF 393 renal) [µM]	GI50 (SF-539 CNS) [µM]	TGI (SF-539 CNS) [µM]	GI50 (SN12C renal) [µM]	TGI (SN12C renal) [µM]	GI50 (UACC-257 melanoma) [µM]	TGI (UACC-257 melanoma) [µM]
CCc1c(C)nc2sc3c(N)ncnc3c2c1C	> 25	> 25	> 25	> 25	> 25	> 25	> 25	> 25	> 25	> 25	> 25	> 25	> 25	> 25	> 25	> 25	> 25	> 25	> 25	> 25
FC(F)(F)c1cccc(-c2nn3ncccc3c2-c2ccnc(Nc3ccc4c(c3)OCCO4)n2)c1	6.42	> 25	14.1	> 25	19.2	> 25	> 25	> 25	5.52	> 25	8.75	> 25	6.83	> 25	> 25	> 25	11.7	> 25	9.5	> 25
CC1C=CC(OC(=O)C(C)(O)CCC(O)(C(=O)OC2CC(O)C(C(C)C)CC2(C)O)C(C)C)(C(C)C)CC1 (stereo not drawn)	0.322	0.949	0.747	1.61	0.272	0.608	0.641	1.66	0.403	1.86	0.0916	0.218	0.57	1.35	0.685	1.35	0.149	0.602	0.911	2.56
Cc1[nH]nc(-c2ccon2)c1N=O	–	28.4	–	49.4	–	41.2	–	41.9	–	29	–	44.8	–	97.7	–	32.7	–	42	–	31.7
Cn1ccnc1Oc1ccc(Cl)cc1	–	25.4	–	25.7	–	30.7	–	65.6	–	24.4	–	42.3	–	37.1	–	31.7	–	26.4	–	21.5
COc1cc(C(=O)c2cc(C)c3[nH]c4ccc(O)cc4c3c2C)cc(OC)c1OC	< 0.0128	> 100	0.0298	0.11	0.0351	> 26.5	0.0297	> 70.9	0.944	> 100	< 0.01	> 100	< 0.01	3.11	< 0.0113	–	0.0415	> 100	6.42	> 100
C=CCc1cc(Nc2c3ccc(Cl)cc3nc3ccc(OC)cc23)cc(CN(CC)CC)c1O	2.12	13.1	1.39	3	1.96	14.2	2.92	13.5	1.11	4.04	0.615	4.11	1.23	4.66	2.45	9.16	2.03	12.1	2.21	9.27
N/C(=N\OC(=O)c1ccccc1)C(Cc1ccccc1)C(=O)NOC(=O)c1ccccc1 (stereo not drawn)	1.66	3.58	3.94	14.7	1.58	3.07	1.37	2.83	1.84	3.63	1.05	3.42	1.97	5.6	1.84	3.99	3.39	25.4	5.32	18.5
CCOC(=O)c1cc2c(cc1Cl)SC(=Nc1ccccc1)N(S(=O)(=O)c1ccc(Br)s1)S2(=O)=O	14.4	27.5	25.2	> 100	19	37	23.3	44.2	10.9	33.6	4.73	21.1	2.1	11.5	14.3	29.3	17.3	33.9	13.5	30.4
Clc1ccc(C2ON=C(c3ccccc3)N2C23CC4CC(CC(C4)C2)C3)cc1 (stereo not drawn)	–	> 10	–	> 10	–	> 10	–	> 10	–	> 10	–	> 10	–	> 10	–	> 10	–	> 10	–	> 10
O=C(O)c1ccccc1NC(=S)c1ccccc1	–	84.6	–	> 100	–	> 100	–	> 100	–	44.1	–	> 100	–	> 100	–	> 100	–	> 100	–	> 100
O=C(O)c1cc(CCc2cc(O)ccc2O)ccc1O	–	> 100	–	> 100	–	> 100	–	> 100	–	> 100	–	> 100	–	> 100	–	> 100	–	> 100	–	> 100
Nc1n[nH]c2ccc([C@@H]3Nc4cc5c(cc4[C@H]4C6CCC(C6)[C@@H]34)C(=O)NC5)cc12 (stereo partly drawn)	0.726	> 100	0.326	1.7	0.416	> 40.7	0.513	> 100	0.375	> 100	0.131	> 100	0.273	–	0.258	0.814	0.473	> 100	> 100	> 100
COc1cc2cc(Oc3ccc(NC(=O)c4ccc(Cl)c(Cl)c4)cc3)c(C)nc2cc1OC	8.63	> 100	6.44	> 100	> 100	> 100	> 100	> 100	16.1	> 100	7.23	> 100	9.66	> 100	> 100	> 100	> 100	> 100	> 100	> 100
